According to PubChem BioAssay (NCI):
Several values for one entry are separate records, joined by “and”; a condition that tells them apart may be missing. Identical values can stand only once.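 A five-concentration, 48-hour dose response in 96-well plates underlies each endpoint, interpolated linearly between surrounding concentrations. GI50 marks 50% less growth. TGI denotes the concentration required for complete inhibition of growth.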

Legend:
Assay in all cases: growth of human tumour cells (NCI), 48 h
U251 CNS = test system: U251 CNS
A498 renal = test system: A498 renal
RXF 393 renal = test system: RXF 393 renal
NCI-H23 lung = test system: NCI-H23 lung
OVCAR-8 ovarian = test system: OVCAR-8 ovarian
NCI-H460 lung = test system: NCI-H460 lung
HL-60(TB) leukemia = test system: HL-60(TB) leukemia
K-562 leukemia = test system: K-562 leukemia

Compound	TGI (U251 CNS)	TGI (A498 renal)	TGI (RXF 393 renal)	TGI (NCI-H23 lung)	TGI (OVCAR-8 ovarian)	TGI (NCI-H460 lung)	TGI (HL-60(TB) leukemia) [µM]	TGI (K-562 leukemia) [µM]	GI50 (U251 CNS) [µM]	GI50 (A498 renal)	GI50 (RXF 393 renal) [µM]	GI50 (NCI-H23 lung)	GI50 (OVCAR-8 ovarian)	GI50 (NCI-H460 lung)	GI50 (HL-60(TB) leukemia)	GI50 (K-562 leukemia)
COc1cc2c(cc1[N+](=O)[O-])C(=O)C(Br)(Br)CCC2	9.04 µM	28.6 µM	4.51 µM	8.59 µM	5.54 µM	20.1 µM	21	6.27								
O=C1OCC2=C1C(c1cccc(Cl)c1)c1cc3c(cc1N2CCO)CCC3 (centres undefined)	4.5 µM	0.0947 µM		14.3 µM	2.98 µM	4.12 µM	0.353	14.4	0.0372	0.0215 µM	0.0238	0.0481 µM	0.0577 µM	0.038 µM	0.0318 µM	0.0478 µM
c1ccc(CC(Nc2cccnc2)c2ccccc2)cc1 (centres undefined)	42 µM	> 100 µM	51.2 µM	82.2 µM	> 100 µM	52.9 µM	50.1	> 100								
CCC(C)C1NC(=O)C(NC(=O)C(CC(C)C)N(C)C(=O)[C@@H]2CC(O)CN2C(=O)[C@H](C)O)C(C)OC(=O)[C@H](Cc2ccc(OC)cc2)N(C)C(=O)[C@@H]2CCCN2C(=O)[C@H](CC(C)C)NC(=O)C(C)C(=O)[C@H](C(C)C)OC(=O)CC1O (some centres undefined)	1.63 µM and 0.677 µM	4.84 µM and 3.01 µM	0.481 µM and 0.112 µM	0.172 µM	4.38 µM and 2.62 µM	1.16 µM and 1.4 µM	2.03	0.352	< 0.01	0.325 µM	< 0.01		0.107 µM	0.019 µM	0.154 µM	0.025 µM
CC/C(=C(/c1ccc(OCCN(C)C)cc1)c1ccc(OC(=O)CCCCCCCCC(=O)c2c(C)[nH]c(/C=C3\N=C(c4ccc[nH]4)C=C3OC)c2C)cc1)c1ccccc1	> 100 µM	72 µM	> 100 µM	> 100 µM	> 100 µM	> 100 µM	> 100	> 100	4.2	15 µM	13.9	48.4 µM	9.06 µM	4.26 µM	12.3 µM	4.54 µM
COC(=O)c1cccc(NC(=O)c2ccc(NC3=C(Cl)C(=O)N(Cc4ccccc4)C3=O)cc2)c1	28.3 µM	73 µM	60.2 µM	22.4 µM	32.1 µM	84.6 µM	38.8	52.7	12.7	26.3 µM	13.9	8.57 µM	11.4 µM	30.2 µM	16.8 µM	21.3 µM
CC1(C)C(CC(=O)O)CCCC1CC(=O)O (centres undefined)	> 100 µM	> 100 µM	> 100 µM	> 100 µM	> 100 µM			> 100								
COc1c(B(O)O)cccc1-c1nc2c(F)cc3n[nH]c(C)c3c2c2c1CCCC2	> 50 µM		0.924 µM	> 27.8 µM	> 50 µM	> 50 µM	> 12.9	> 50	1.12		0.044	1.33 µM	1.22 µM	1.28 µM	0.5 µM	1.68 µM
C[C@]12CC[C@@H]3c4ccc(OC(=O)N(CCCl)CCCl)cc4CC[C@H]3[C@@H]1CC[C@@H]2OP(=O)(O)O	> 100 µM	42.2 µM		> 100 µM	> 100 µM	> 100 µM	98.5	> 100	33.9	16 µM		38.4 µM	> 85.6 µM	36.1 µM	30.1 µM	> 73.5 µM
Cc1c(C(=O)c2ccccc2)[n+](=O)c2cc(F)c(F)cc2n1[O-]	3.08 µM	24.9 µM		3.16 µM	4.32 µM	5.17 µM		> 100	1.71	12.1 µM		1.72 µM	2.02 µM	2.27 µM		1.97 µM
CN(C)c1ccc(/C=c2/c3cc(O)ccc3n3c2cc(-c2ccccc2)[n+]3C)cc1	1.52 µM	> 100 µM	3.54 µM	4.64 µM	2.03 µM		1.05			> 100 µM						1.01 µM
CCc1ncc(CO)n1Cc1cccc2ccccc12	> 100 µM	> 100 µM	> 100 µM	> 100 µM	> 100 µM	> 100 µM		> 100								
CC#CC#C/C(=C/C=CC(=O)OC)SC	> 100 µM	> 100 µM			> 100 µM	> 100 µM	> 100	> 100								
COC1C(=O)CCC2(CO2)C1(O)C1(C)OC1CC=C(C)C (centres undefined)	> 100 µM	> 100 µM	> 100 µM	> 100 µM	> 100 µM	> 100 µM		76.3								
Fc1ccc(Nc2nc3nonc3nc2Nc2ccc(I)cc2)cc1	10.8 µM	0.708 µM	0.817 µM	1.31 µM	12.8 µM	12.4 µM		11	0.293	0.227 µM	0.237	0.265 µM	0.312 µM	0.312 µM		0.181 µM
CN(C)CCCCNc1ccc(NCCCCN(C)C)c2c1C(=O)c1c(O)ccc(O)c1C2=O	3.08 µM	26.3 µM	11.2 µM	2.98 µM	2.94 µM	2.94 µM	4.12		1.69	13.5 µM	1.75	1.63 µM	1.55 µM	1.59 µM	1.73 µM	
COc1cc2c(cc1-c1coc3cc(O)ccc3c1=O)OCO2	45.9 µM	80.5 µM		40.3 µM	40.1 µM	32 µM	> 100	> 100								
CN1CCN(CCC=C2c3ccccc3Sc3ccc(S(=O)(=O)N(C)C)cc32)CC1		13.2 µM and 17 µM	5.52 µM	71 µM and 52.7 µM	24.6 µM and 36.4 µM	14.8 µM and 14 µM	4.65	4.72		2.19 µM and 3.51 µM	1.68	12.2 µM and 15.7 µM	5.85 µM and 15.2 µM	3.51 µM and 3.47 µM	2.38 µM and 2.41 µM	2.21 µM and 1.63 µM
CCCCCCCCCC[C@H](O)[C@H]1CC[C@@H]([C@@H](O)CC[C@H](O)[C@@H]2CCC(CCCCCCC[C@@H](O)CC3=C[C@H](C)OC3=O)O2)O1 (some centres undefined)			19.8 µM	3.68 µM and 19.2 µM		17.2 µM	4.95	19.2	8.25				4.09 µM	1.15 µM		
